{
  "source": "paper PMC9127163",
  "about": "“Lysosomal Targeted Cyclometallic Iridium(Ⅲ) Salicylaldehyde-Coumarin Schiff Base Complexes and Anticancer Application” (Frontiers in Chemistry, 2022)",
  "assay_type_in_all_cases": "cell-based, human",
  "key": {"A549 cells [1]": {"tested_on": "A549 cells", "assay": "Mitochondrial membrane potential (JC-1) flow cytometry, A549 cells", "conditions": "A549, positive control CCCP (5 μM), 20 min", "excerpt": "Mitochondria, the main intracellular energy source, play an important role in the process of apoptosis. Disruption of mitochondrial membrane potential (MMP) is usually identified as the early signals of cell apoptotic. JC-1, a liphile cationic fluorescent dye, is generally used to detect the change of MMP, and it emits strong red fluorescence in the normal mitochondrial matrix and green fluorescence after depolarization activation in apoptotic cells ([Antonicka et al., 2017]). In this study, flow cytometry was utilized to analyze this change after the treatment of Ir2 at a gradient concentration. […] In addition, intracellular reactive oxygen species (ROS) is mainly produced and stored in mitochondria, and the accumulation of intracellular ROS can lead to apoptosis ([Romero-Canelón et al., 2015]). A549 and BEAS-2B cells were stained with DCFH-DA after incubated with Ir2 (1.0 × IC50 and 2.0 × IC50) for 24 h (Figure 8B). The intracellular ROS levels increased in a dose-dependent manner. […]\n(§1) Analysis of the changes of mitochondrial potential in cells after exposure to Ir2 were carried out using the mitochondrial membrane potential assay kit with JC-1 (Beyotime Institute of Biotechnology, Shanghai, China) according to the manufacturer’s instructions. […] The samples were immediately analyzed by a flow cytometer (ACEA NovoCyte, Hangzhou, China). […]"}, "BEAS-2B cells [2]": {"tested_on": "BEAS-2B cells", "assay": "Mitochondrial membrane potential (JC-1) flow cytometry, BEAS-2B cells", "conditions": "positive control CCCP (5 μM), 20 min", "excerpt": "Mitochondria, the main intracellular energy source, play an important role in the process of apoptosis. Disruption of mitochondrial membrane potential (MMP) is usually identified as the early signals of cell apoptotic. JC-1, a liphile cationic fluorescent dye, is generally used to detect the change of MMP, and it emits strong red fluorescence in the normal mitochondrial matrix and green fluorescence after depolarization activation in apoptotic cells ([Antonicka et al., 2017]). In this study, flow cytometry was utilized to analyze this change after the treatment of Ir2 at a gradient concentration. […] In addition, intracellular reactive oxygen species (ROS) is mainly produced and stored in mitochondria, and the accumulation of intracellular ROS can lead to apoptosis ([Romero-Canelón et al., 2015]). A549 and BEAS-2B cells were stained with DCFH-DA after incubated with Ir2 (1.0 × IC50 and 2.0 × IC50) for 24 h (Figure 8B). The intracellular ROS levels increased in a dose-dependent manner.\nas §1"}, "A549 cells [3]": {"tested_on": "A549 cells", "assay": "MTT cytotoxicity assay, A549 cells", "conditions": "24 h", "excerpt": "(§2) MTT assay was utilized to evaluate the anticancer activity of Ir1-Ir6 toward A549 cells (human non-small cell lung cancer cells, one of the deadliest types of cancer in both developing and developed countries) along with cisplatin (metal anticancer drug widely used in clinic) as a control and compared with the cytotoxicity against noncancerous BEAS-2B cells (epithelial cells isolated from pathological sections of normal bronchial epithelium from non-cancerous individuals). […] Additionally, the substitution sites of coumarin (6- and 7-) have little effect on these complexes, however, the peripheral substituents show a significant effect on the structure−activity. […] In addition, the data is even better than the reported traditional cyclometallic Ir^III complexes (usually depicted as [(ppy)2Ir (L^L)], L^L = N^N, C^N, C^O, O^N, P^P, etc., Supplementary Table S3). […]\n(§3) After plating 5000 cells per well in 96-well plates, the cells were preincubated in drug-free media at 310 K for 24 h before adding different concentrations of drugs to be tested. […] Afterwards, 100 μL of DMSO was transferred into each well to dissolve the purple formazan, and results were measured using a microplate reader (DNM-9606, Perlong Medical, Beijing, China) at an absorbance of 570 nm. […]"}, "BEAS-2B cells [4]": {"tested_on": "BEAS-2B cells", "assay": "MTT cytotoxicity assay, BEAS-2B cells", "conditions": "24 h", "excerpt": "as §2, §3"}},
  "data": [
    {"smiles": "N#CC(C#N)=NNc1cccc(Cl)c1", "note": "[Positive Control, carbonyl cyanide 3-chlorophenylhydrazone, reference compound]", "values": [
      {"measurement": "Percentage (%) JC-1 Aggregates", "setting": "A549 cells [1]", "result": "22.63±0.55", "unit": "%"},
      {"measurement": "Percentage (%) JC-1 Monomers (depolarized cells)", "setting": "A549 cells [1]", "result": "77.37±0.55", "unit": "%"},
      {"measurement": "Percentage (%) JC-1 Aggregates", "setting": "BEAS-2B cells [2]", "result": "11.60±0.51", "unit": "%"},
      {"measurement": "Percentage (%) JC-1 Monomers", "setting": "BEAS-2B cells [2]", "result": "88.40±0.33", "unit": "%"}
    ]},
    {"smiles": "N.N.[Cl][Pt][Cl]", "note": "[Cisplatin, reference compound]", "values": [
      {"measurement": "IC50", "setting": "A549 cells [3]", "result": "21.3 ± 1.7", "unit": "µM"},
      {"measurement": "IC50", "setting": "BEAS-2B cells [4]", "result": "38.4 ± 2.8", "unit": "µM"}
    ]}
  ]
}
